Structures are written as SMILES.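 Cultured in 96-well plates, cells were exposed to test compound for 48 hours across five concentrations. The concentration for full growth arrest is given as TGI.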

The test system of the first assay is UACC-62 melanoma. Briefly: growth of human tumour cells (NCI), 48 h.
Regarding `Cc1nc2c(sc(=S)n2-c2ccccc2)c2nc3ncccc3n12`, the TGI was over 100 µM.
The same measure, in the same setting: the result for `Cc1nnc(Nc2ccccc2)o1` reads over 100 µM.

The subject of a further assay is SF-295 CNS. The experiment in a line: growth of human tumour cells (NCI), 48 h.
Regarding `NC(C(F)(F)F)(C(F)(F)F)P(=O)(Cc1ccccc1)Cc1ccccc1`, the TGI is over 100 µM.
`COc1ccc(C2CC(c3c(O)ccc4ccccc34)=NN2c2ccc([N+](=O)[O-])cc2[N+](=O)[O-])cc1OC` (stereo not drawn) showed a TGI of over 87.1 µM.
`S=C(N/N=C\C=N/NC(=S)N1CCCCC1)N1CCCCC1` displayed a TGI of over 77.8 µM.
Consider `CN1C(=O)C2C(=O)N(Cc3ccccc3)CC(=O)N2c2cccnc21` (stereo not drawn), for which the TGI is over 100 µM.
As for `C=C1CC(COc2cc(=O)oc3ccccc23)(c2ccccc2)OC1=O` (stereo not drawn), the TGI stood at 22.7 µM.
The molecule `O=C(O)CSc1nnc(COc2ccc(Cl)cc2)n1-c1ccccc1` showed a TGI of over 100 µM.
Same read-out and setting: for `CN(C)CCCOc1nc2c(c(=O)n(C)c(=O)n2C)n1C` (tested in a mixture with another compound) the value was over 100 µM; for `C[N+]1=C2[B-](C(C)(C)C)=[N+](C(C)(C)C)[B-]2(C(C)(C)C)[N+](C)=C2[B-](C(C)(C)C)=[N+](C(C)(C)C)[B-]21C(C)(C)C` (stereo not drawn), over 100 µM.
The same measure, in the same setting: the result for `Cc1cc(N(CCC#N)CCC#N)ccc1/C=N/NC(=O)c1cc(Cl)ccc1O` reads over 100 µM; that for `Brc1ccc(CCNCCN2CCCCC2)cc1`, 32.3 µM.
On the same count and under the same terms, the result for `Cc1ccc(C(=O)Nc2ccc(CP(=O)(O)O)cc2CP(=O)(O)O)cc1NC(=O)c1cccc(N)c1` reads over 100 µM; that for `OC1C2[C@@H](O)CCCN2C[C@@H](O)[C@H]1O` (stereo partly drawn), over 100 µM.
`CN(C)/N=N/c1nc2c(c(=O)n(C)c(=O)n2C)n1C` gave a TGI of over 100 µM.
Still for that read-out and setting: for `COc1ccccc1N/C(=C\C(=O)C(=O)NC12CC3CC(CC(C3)C1)C2)c1ccccc1` the value was over 10 µM; for `CC(C)(C)c1ccc2c(c1)CNCCNCc1cc(C(C)(C)C)ccc1OCC1(CO2)COc2ccc(C(C)(C)C)cc2CNCCNCc2cc(C(C)(C)C)ccc2OC1`, 1.97 µM.
`CCN(CC)CCc1c2c(nc3ccccc13)C(=O)c1cccnc1C2=O`: the TGI stood at 5.41 µM.
Regarding `Nc1cc(CO)cc(Nc2nc3ccc(Cl)cc3c3[nH]c4ccccc4c23)c1`, the TGI is 15 µM.
For the molecule `CCN1CC2=C(NC(=S)NC2c2ccc(Cl)cc2)/C(=C/c2ccc(Cl)cc2)C1` (stereo not drawn), the TGI is over 100 µM.
On the same count and under the same terms, for `CN1C(=O)N(c2ccccc2)C2(CCN(CC3COc4ccccc4O3)CC2)C1=O` (stereo not drawn) the value was over 100 µM; for `Oc1ccc(/C=C/c2cc(O)cc(O)c2)cc1`, over 100 µM.
`O=C(O)c1c2c(cc3c1CC1(Cc4ccccc4C1)C3)CCC2` came in with a TGI of over 100 µM.
The molecule `O=C(O)c1cc2c(cc1CC(Cc1ccc3c(c1)CCC3)C(=O)O)CCC2` (stereo not drawn) came in with a TGI of over 100 µM.
With `CC(C)=CCOC(=O)C(C)=[N+]=[N-]`, the TGI was over 100 µM.
For the molecule `O=C1CCC[C@@H]2NC[C@@H](c3ccc4c(c3)OCO4)[C@H]12`, the TGI was over 25 µM.
In the case of `O=C(Nc1ccc(Br)cc1)c1c(-c2ccccc2)c2ccc(O)cc2oc1=O`, the TGI was over 10 µM.
The same measure, in the same setting: for `CC(O[Si](c1ccccc1)(c1ccccc1)C(C)(C)C)[C@H](NC(=O)OC(C)(C)C)C(=O)O[Si](c1ccccc1)(c1ccccc1)C(C)(C)C` (stereo partly drawn) the value was 21.4 µM; for `CC(C)c1ccc2[nH]c(O)c(-c3[nH]c4ccccc4c3N=O)c2c1`, 16.3 µM.
The same measure, in the same setting: for `Cc1nc2c(sc(=S)n2-c2ccccc2)c2nc3ncccc3n12` the value was over 100 µM; for `CCCc1cc(=O)c2c(C)c3[nH]c4ccc(Cl)cc4c3c(C)c2[nH]1`, 3.96 µM.
Consider `Cc1nnc(Nc2ccccc2)o1`, for which the TGI is over 100 µM.

The subject of another assay is OVCAR-8 ovarian. The experiment in a line: growth of human tumour cells (NCI), 48 h.
`NC(C(F)(F)F)(C(F)(F)F)P(=O)(Cc1ccccc1)Cc1ccccc1` displayed a TGI of over 100 µM.
`COc1ccc(C2CC(c3c(O)ccc4ccccc34)=NN2c2ccc([N+](=O)[O-])cc2[N+](=O)[O-])cc1OC` (stereo not drawn) had a TGI of 27.3 µM.
Same read-out and setting: for `S=C(N/N=C\C=N/NC(=S)N1CCCCC1)N1CCCCC1` the value was over 100 µM; for `CN1C(=O)C2C(=O)N(Cc3ccccc3)CC(=O)N2c2cccnc21` (stereo not drawn), over 100 µM.
The molecule `C=C1CC(COc2cc(=O)oc3ccccc23)(c2ccccc2)OC1=O` (stereo not drawn) registered a TGI of 4.87 µM.
`O=C(O)CSc1nnc(COc2ccc(Cl)cc2)n1-c1ccccc1` returned a TGI of over 100 µM.
`CN(C)CCCOc1nc2c(c(=O)n(C)c(=O)n2C)n1C` (tested in a mixture with another compound) displayed a TGI of over 100 µM.
Molecule `C[N+]1=C2[B-](C(C)(C)C)=[N+](C(C)(C)C)[B-]2(C(C)(C)C)[N+](C)=C2[B-](C(C)(C)C)=[N+](C(C)(C)C)[B-]21C(C)(C)C` (stereo not drawn) registered a TGI of over 100 µM.
The molecule `Cc1cc(N(CCC#N)CCC#N)ccc1/C=N/NC(=O)c1cc(Cl)ccc1O` had a TGI of over 100 µM.
The same measure, in the same setting: the result for `Brc1ccc(CCNCCN2CCCCC2)cc1` reads 30.5 µM.
On the same count and under the same terms, the result for `Cc1ccc(C(=O)Nc2ccc(CP(=O)(O)O)cc2CP(=O)(O)O)cc1NC(=O)c1cccc(N)c1` reads over 100 µM; that for `OC1C2[C@@H](O)CCCN2C[C@@H](O)[C@H]1O` (stereo partly drawn), over 100 µM; that for `CN(C)/N=N/c1nc2c(c(=O)n(C)c(=O)n2C)n1C`, over 100 µM.
For the molecule `COc1ccccc1N/C(=C\C(=O)C(=O)NC12CC3CC(CC(C3)C1)C2)c1ccccc1`, the TGI was over 10 µM.
Consider `CC(C)(C)c1ccc2c(c1)CNCCNCc1cc(C(C)(C)C)ccc1OCC1(CO2)COc2ccc(C(C)(C)C)cc2CNCCNCc2cc(C(C)(C)C)ccc2OC1`, for which the TGI amounted to 1.45 µM.
For `CCN(CC)CCc1c2c(nc3ccccc13)C(=O)c1cccnc1C2=O`, the TGI is over 100 µM.
The molecule `Nc1cc(CO)cc(Nc2nc3ccc(Cl)cc3c3[nH]c4ccccc4c23)c1` showed a TGI of 18.5 µM.
Turning to `O=C(CC(=O)n1nc(-c2ccccc2)c(N=Nc2ccccc2C(=O)O)c1-c1ccccc1)Nc1ccc(Cl)cc1`, the TGI was over 100 µM.
`CCN1CC2=C(NC(=S)NC2c2ccc(Cl)cc2)/C(=C/c2ccc(Cl)cc2)C1` (stereo not drawn): the TGI was over 100 µM.
Molecule `CN1C(=O)N(c2ccccc2)C2(CCN(CC3COc4ccccc4O3)CC2)C1=O` (stereo not drawn) returned a TGI of over 100 µM.
Still for that read-out and setting: the result for `Oc1ccc(/C=C/c2cc(O)cc(O)c2)cc1` reads over 100 µM; that for `O=C(O)c1c2c(cc3c1CC1(Cc4ccccc4C1)C3)CCC2`, over 100 µM.
Turning to `O=C(O)c1cc2c(cc1CC(Cc1ccc3c(c1)CCC3)C(=O)O)CCC2` (stereo not drawn), the TGI is over 100 µM.
`CC(C)=CCOC(=O)C(C)=[N+]=[N-]` showed a TGI of over 100 µM.
In the case of `O=C1CCC[C@@H]2NC[C@@H](c3ccc4c(c3)OCO4)[C@H]12`, the TGI is over 25 µM.
In the case of `O=C(Nc1ccc(Br)cc1)c1c(-c2ccccc2)c2ccc(O)cc2oc1=O`, the TGI was over 10 µM.
On to `CC(O[Si](c1ccccc1)(c1ccccc1)C(C)(C)C)[C@H](NC(=O)OC(C)(C)C)C(=O)O[Si](c1ccccc1)(c1ccccc1)C(C)(C)C` (stereo partly drawn), for which the TGI stood at 33.6 µM.
For the molecule `CC(C)c1ccc2[nH]c(O)c(-c3[nH]c4ccccc4c3N=O)c2c1`, the TGI amounted to 14.6 µM.
`Cc1nc2c(sc(=S)n2-c2ccccc2)c2nc3ncccc3n12`: the TGI is over 100 µM.
Same read-out and setting: the result for `CCCc1cc(=O)c2c(C)c3[nH]c4ccc(Cl)cc4c3c(C)c2[nH]1` reads 6.31 µM; that for `Cc1nnc(Nc2ccccc2)o1`, over 100 µM.

The values are drawn from PubChem BioAssay (NCI).
